Key:
[1] = system: bacteria causing the soft rot (Erwinia carotovora); assay: Inhibition test of growth of bacteria causing soft rot, Reference Test Example 5; type: cell-based; conditions: for formed colonies (growth state), grade: PSA medium, 27 degrees Celsius, 2 days
Protocol: An inhibition test of the growth of bacteria causing the soft rot was done, when a control agent was directly applied to the bacteria causing the soft rot. A given volume of each pesticide of mepanipyrim (Flupika FL [trade name] manufactured by Nippon Soda Co., Ltd.) and streptomycin (Mycin Wettable powder [trade name] manufactured by Hokko Chemical Industry Co., Ltd.) was added together with a suspension of the bacteria causing the soft rot (Erwinia carotovora) to a preliminarily dissolved PSA culture medium (55 degrees Celsius) for subsequent thorough agitation, which was then spread on a plate for culturing at 27 degrees Celsius for 2 days, to examine the growth state. Subsequently, the formed colonies were examined according to the following three grades. • +: at the same level as the level of non-treated lot.
(§1) Plus or minus: apparently less than the colonies of the non-treated lot. • −: almost no colonies observed.

[2] = system: soft rot of Chinese cabbage; assay: Test for controlling soft rot of Chinese cabbage, Example 4 / Comparative Example 4 (field, cultivar Ouraku 60); type: in vivo; conditions: 150 L/10 a sprayed onto planting holes before planting, 49 days after start
Description: Frequency of the disease=[sigma(number of plants with the onset of the disease at each severity level*index of the onset of the disease)/(plants examined*4)]*100
Disease control value=[1-(frequency of the disease in the treated lot/frequency of the disease in the non-treated lot)]*100
• 0: No onset • 1: Onset in some of outer leaves (shippable) • 2: Onset in outer leaves and some of head leaves (by removing damaged parts, the resulting cabbage can be shipped as small cabbage but is ranked as grade B). • 3: Most of head leaves are inflicted with the onset of the disease or with severer damages (not shippable) • 4: Whole cabbage plant is inflicted with the onset of the disease and is dead.
442 g/lkresoxim-methyl (STROBY FLOWABLE [trade name], manufactured by BASF) was adjusted to 500 g ai/10a (0.5 g/m^2, 1131 ml Product/10a) as the amount of the active ingredient and to 150 L/10a as the volume of diluent water.
70% w/w thiophanate methyl (Topsin M WF [trade name], manufactured by Nippon Soda Co., Ltd.) was adjusted to 1000 g ai/10a (1 g/m^2, 1429 g Product/10a) as the amount of the active ingredient and to 150 L/10a as the volume of diluent water.
50% w/w boscalid (Cantus DF [trade name], manufactured by BASF) was adjusted to 500 g ai/10a (0.5 g/m^2; 1000 g Product/10a) as the amount of the active ingredient and to 150 L/10a as the volume of diluent water.
50% w/w procymidone (Sumilex WP [trade name], manufactured by Sumitomo Chemical Agro) was adjusted to 500 g ai/10a (0.5 g/m^2, 1000 g Product/10a) as the amount of the active ingredient and to 150 L/10a as the volume of diluent water.
400 g/l iprodione (Rovral 500 Aqua [trade name], manufactured by Bayer Crop Science Co., Ltd.) was adjusted to 500 g ai/10a (0.5 g/m^2, […] Product/10a) as the amount of the active ingredient and to 150 L/10a as the volume of diluent water.
200 g/l fludioxonil (Seibia FLOWABLE [trade name], manufactured by Syngenta Japan K.K.) was adjusted to 500 g ai/10a (0.5 g/m^2, 2500 ml Product/10a) as the amount of the active ingredient and to 150 L/10a as the volume of diluent water.
400 g/l mepanipyrim (Flupika PLOWABLE [trade name], manufactured by Nippon Soda Co., Ltd.) was adjusted to 500 g ai/10a (0.5 g/m^2, 1250 ml Product/10a) as the amount of the active ingredient and to 150 L/10a as the volume of diluent water.
After spreading an agricultural mulch-sheet and opening planting holes (diameter of about 5 cm) for permanent planting through the mulch-sheet, the spray solutions prepared as described above were sprayed onto the planting holes such that the amount of treated active ingredient of each spray solution was 0.5 g/m^2 (150 L per 10a), followed by air-drying; subsequently, seedlings of Chinese cabbage (cultivar: Ouraku 60) grown for 4 weeks in cell mold trays (128 holes/nursery box) were planted such that 30 seedlings were planted in each test lot having an area of 2.5 m^2 with two replications.
Preparation was performed by diluting a chemical solution (Agrimycin WP100 [trade name] manufactured by Pfizer) containing oxytetracycline at 1.5% and streptomycin sulfate salt at 18.8% with water to 1/1500.
In a field spread with the agricultural mulch-sheet, Chinese cabbage seedlings (cultivar: Ouraku 60) grown by the same method as in Example 4 were planted by the same method as in Example 4, for spraying the spray solution prepared above in (1) (at each spray volume of 300 L/10a) twice (28 days and 42 days after the planting of the seedlings) on the stems and leaves.
49 days after the start of the tests, all the plants in each lot were examined about the severity level of the disease to assess the frequency of the disease and the disease control value. Herein, the frequency of the disease and the disease control value were determined in the same manner as described above. Because soft rot is a disease with damages hardly controlled, herein, even a chemical at the level C determined by the tests of the effects can practically be used.

[3] = system: bacteria causing the soft rot (Erwinia carotovora); assay: Inhibition test of growth of bacteria causing soft rot, Reference Test Example 6; type: cell-based; conditions: for formed colonies (growth state), grade: PSA medium, 27 degrees Celsius, 3 days; for inhibition of growth of Erwinia carotovora (in words): active ingredient concentration of 1,000 ppm
Description: An inhibition test of the growth of bacteria causing the soft rot was done, when a control agent was directly applied to the bacteria causing the soft rot. A given volume of each pesticide of fludioxonil (Seibia FL [trade name] manufactured by Syngenta Japan K.K.), iminoctadine albesilate salt (Bellkute WP [trade name], manufactured by Nippon Soda Co., Ltd.), iprodione (Rovral WP [trade name] manufactured by Bayer Crop Science Co., Ltd.), and streptomycin (Mycin Wettable powder [trade name] manufactured by Hokko Chemical Industry Co., Ltd.) was added together with a suspension of the bacteria causing the soft rot (Erwinia carotovora) to a preliminarily dissolved PSA culture medium (55 degrees Celsius) for subsequent thorough agitation, which was then spread on a plate for culturing at 27 degrees Celsius for 3 days, to examine the growth state. Subsequently, the formed colonies were examined according to the following three grades. • +: at the same level as the level of non-treated lot.
as §1

[4] = system: bacteria causing the soft rot (Erwinia carotovora); assay: Inhibition test of growth of bacteria causing soft rot, Reference Test Example 4; type: cell-based; conditions: for formed colonies (growth state), grade: PSA medium, 27 degrees Celsius, 2 days; for inhibition of growth of Erwinia carotovora (in words): active ingredient concentration of 1,000 ppm
Description: An inhibition test of the growth of bacteria causing the soft rot was done, when a control agent was directly applied to the bacteria causing the soft rot. A given volume of each pesticide of kresoxim-methyl (STROBY DF [trade name] manufactured by BASF), thiophanate methyl (Topsin M WP [trade name], manufactured by Nippon Soda Co., Ltd), boscalid (Cantus DF [trade name] manufactured by BASF), procymidone (Sumilex WP [trade name] manufactured by Sumitomo Chemical Agro Co., Ltd.) and streptomycin (Mycin Wettable powder [trade name] manufactured by Hokko Chemical Industry Co., Ltd.) was added together with a suspension of the bacteria causing the soft rot (Erwinia carotovora) to a preliminarily dissolved PSA culture medium (55 degrees Celsius) for subsequent thorough agitation, which was then spread on a plate for culturing at 27 degrees Celsius for 2 days, to examine the growth state. Subsequently, the formed colonies were examined according to the following three grades. • +: at the same level as the level of non-treated lot. Plus or minus: apparently less than the colonies of the non-treated lot. • −: almost no colonies observed.

| SMILES | formed colonies (growth state), grade ([1]; 100 ppm active ingredient) | formed colonies (growth state), grade ([1]; 500 ppm active ingredient) | formed colonies (growth state), grade ([1]; 1000 ppm active ingredient) | inhibition of growth of Erwinia carotovora (in words) ([1]; active ingredient concentration of 1,000 ppm) | Determination of effect ([2]; 500 g ai/10 a) | formed colonies (growth state), grade ([3]; 100 ppm active ingredient) | formed colonies (growth state), grade ([3]; 500 ppm active ingredient) | formed colonies (growth state), grade ([3]; 1000 ppm active ingredient) | inhibition of growth of Erwinia carotovora (in words) [3] | formed colonies (growth state), grade ([4]; 100 ppm active ingredient) | formed colonies (growth state), grade ([4]; 500 ppm active ingredient) | formed colonies (growth state), grade ([4]; 1000 ppm active ingredient) | inhibition of growth of Erwinia carotovora (in words) [4] | Determination of effect ([2]; 1000 g ai/10 a) |
| --- | --- | --- | --- | --- | --- | --- | --- | --- | --- | --- | --- | --- | --- | --- |
| CC#Cc1cc(C)nc(Nc2ccccc2)n1 [Mepanipyrim, N-(4-methyl-6-prop-1-ynylpyrimidin-2-yl)aniline] | +, + | +, + | +, + | never inhibited the growth | B (B: Effective (41 to 60 disease control value)) | – | – | – | – | – | – | – | – | – |
| CC(C)NC(=O)N1CC(=O)N(c2cc(Cl)cc(Cl)c2)C1=O [Iprodione, 3-(3,5-dichlorophenyl)-N-isopropyl-2,4-dioxoimidazolizine-1-carboxamide] | – | – | – | – | B (B: Effective (41 to 60 disease control value)) | +, + | +, + | +, + | never inhibited the growth | – | – | – | – | – |
| O=C(Nc1ccccc1-c1ccc(Cl)cc1)c1cccnc1Cl [Boscalid, 2-chloro-N-(4′-chlorobiphenyl-2-yl)nicotinamide] | – | – | – | – | C (C: Effective at low level (21 to 40 disease control value)) | – | – | – | – | +, + | +, + | +, + | never inhibited the growth | – |
| COC(=O)NC(=S)Nc1ccccc1NC(=S)NC(=O)OC [Thiophanate methyl, dimethyl=4,4′-(o-phenylene)bis(3-thioallophanate)] | – | – | – | – | – | – | – | – | – | +, + | +, + | +, + | never inhibited the growth | B (B: Effective (41 to 60 disease control value)) |
| N#Cc1c[nH]cc1-c1cccc2c1OC(F)(F)O2 [Fludioxonil, 4-(2,2-difluoro-1,3-benzodioxol-4-yl)pyrrole-3-carbonitrile] | – | – | – | – | C (C: Effective at low level (21 to 40 disease control value)) | +, + | +, + | +, + | never inhibited the growth | – | – | – | – | – |
| CC12CC1(C)C(=O)N(c1cc(Cl)cc(Cl)c1)C2=O (stereo not drawn) [Procymidone, N-(3,5-dichlorophenyl)-1,2-dimethylcyclopropane-1,2-dicarboximide] | – | – | – | – | A (A: Highly effective (61 or larger disease control value)) | – | – | – | – | +, + | +, + | +, + | never inhibited the growth | – |

Reference: patent publication US20130123287A1, “CONTROL AGENT FOR SOFT ROT AND CONTROL METHOD FOR THE SAME” (ISHIHARA SANGYO KAISHA, LTD., priority 2010, published 2013)
